The text below walks through data of EP4810040A2, “INHIBITORS OF APOL1 AND METHODS OF USING SAME” (priority 2020, dated 2022).

This assay deals with T1, APOL1 G1 (Homo sapiens, UniProt O14791, I384M/S342G).
T1 sequence (O14791 28-398 S342G/I384M): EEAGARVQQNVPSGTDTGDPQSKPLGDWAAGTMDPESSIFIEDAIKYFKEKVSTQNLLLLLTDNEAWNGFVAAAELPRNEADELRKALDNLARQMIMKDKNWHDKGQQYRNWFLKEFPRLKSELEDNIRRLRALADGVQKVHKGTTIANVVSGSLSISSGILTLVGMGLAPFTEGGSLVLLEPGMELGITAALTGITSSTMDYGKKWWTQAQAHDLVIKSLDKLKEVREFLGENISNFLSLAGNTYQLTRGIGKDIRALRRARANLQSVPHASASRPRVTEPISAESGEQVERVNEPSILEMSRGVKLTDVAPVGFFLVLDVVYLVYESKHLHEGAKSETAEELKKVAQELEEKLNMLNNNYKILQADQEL
In words: MultiTox-Fluor Multiplex Cytotoxicity Assay, tet-inducible APOL1 G1 T-REx-HEK293 cells. It counts as cell-based. On the set-up: expressed in transfected cells; host or cells: T-REx HEK293, clone G1 DC3.25 (pAAVS1-Puro-APOL1 G1). The note with it: for IC90: read-out: Multi-Tox Assay IC90; for Emax: read-out: Multi-Tox Assay Max Activity (%). An outline of the steps:
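T-REx-HEK293 cells carrying tet-inducible APOL1 G1 induced with 50 ng/mL tet alongside compound (top 10 µM, 10-point 3-fold, duplicate) for 24 h at 37 °C. MultiTox-Fluor dead/live protease fluorescence ratio read after 30 min; normalized to no-tet (100% viability) and tet-treated (0%) controls, then curve-fitted.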

Where [1] appears, read: HEK293, Multi-Tox Assay, APOL1 variant (G0/G1/G2) of the HEK293 cells not given.
Setting [2] is: Multi-Tox Assay, APOL1 variant not given.
[3] abbreviates: Multi-Tox Assay, APOL1 variant (G0/G1/G2) not stated in Table 46.
The mark [4] stands for this setting: Multi-Tox Assay, APOL1 variant not stated in Table 46.

Structures are written as SMILES. Like-named read-outs stand apart in the source and are kept apart here. Bounds are passed on as bounds.

In general, IC90 refers to the concentration at which the effect reaches the 90% level. For the molecule `CC(=O)Nc1ccc([C@@H]2C[C@]3(C[C@H](C)N2)OCCc2cc(Cl)sc23)cc1` (racemic) [Compound 50], the IC90 under setting [1] is under 0.05 µM. Also, the “Multi-Tox Assay Max Activity (%)” value under setting [2] is 99.7%. The like results for `Cc1cc(C)nc(CCn2cc([C@@H]3C[C@]4(C[C@H](C)N3)OC[C@@H](O)c3cc(Cl)sc34)nn2)c1` [Compound 235] were, in that order, 0.05 to 0.5 µM and 100.0%. For the molecule `C[C@H]1C[C@@]2(C[C@@H](c3ccc4cn[nH]c4c3)N1)OCCc1cc(Cl)sc12` (racemic) [Compound 67], the IC90 under setting [1] was under 0.05 µM. The Emax under setting [2] was determined as 99.7%. With `Cc1nccnc1[C@@H]1C[C@]2(C[C@H](C)N1)OCCc1cc(Cl)sc12` (racemic) [Compound 164], the IC90 under setting [1] was over 0.5 µM. For the same molecule, under setting [2], the “Multi-Tox Assay Max Activity (%)” value stood at 91.7%. As to `C[C@@H]1CC2(C[C@H](C)N1)OCCc1cc(C(F)(F)F)sc12` (single isomer, unassigned) [Compound 207], under setting [1], the concentration for an effect of 90% (IC90) was in the range of 0.05 to 0.5 µM. For the same molecule, the Emax under setting [2] came to 100%. As for `CC1COC2(C[C@@H](c3cn(C)nn3)N[C@@H](C)C2)c2cc(Cl)sc21` (single isomer, unassigned) [Compound 12], under setting [1], the IC90 is under 0.05 µM. In addition, the “Multi-Tox Assay Max Activity (%)” value under setting [2] is recorded as 99.3%. For the molecule `Cc1n[nH]c2ncc([C@@H]3C[C@]4(C[C@H](C)N3)OCCc3cc(Cl)sc34)cc12` (racemic) [Compound 48], the 90% effect concentration (IC90) under setting [1] was under 0.05 µM. `C#C[C@@H]1C[C@]2(C[C@H](C)N1)OCCc1cc(Cl)sc12` [Compound 221, (2S,4S,6S)-2'-chloro-2-ethynyl-6-methyl-4',5'-dihydrospiro[piperidine-4,7'-thieno[2,3-c]pyran]]: the 90% effect concentration (IC90) under setting [1] lay within 0.05 to 0.5 µM. For the same molecule, under setting [2], the Emax was found to be 99%. `C[C@H]1C[C@@]2(C[C@@H](c3cn(Cc4ccc(O)nc4)nn3)N1)OCC(F)(F)c1cc(Cl)sc12` [Compound 316]: the concentration for an effect of 90% (IC90) under setting [1] is over 0.5 µM. Moreover, the “Multi-Tox Assay Max Activity (%)” value under setting [2] is 95.0%.

With `CC1CC2(CC(c3cnn(CCS(C)(=O)=O)c3)N1)OCCc1sc(C(F)(F)F)cc12` (stereo not drawn) [Compound 9], the IC90 under setting [1] was 0.05 to 0.5 µM. For the same molecule, the “Multi-Tox Assay Max Activity (%)” value under setting [2] was found to be 100.0%. Consider `CCn1cc(Cn2cc([C@@H]3C[C@]4(C[C@H](C)N3)OCC(F)(F)c3cc(Cl)sc34)nn2)cn1` [Compound 330], for which the IC90 under setting [1] is 0.05 to 0.5 µM.

`Cc1cc([C@@H]2C[C@]3(C[C@H](C)N2)OCCc2cc(Cl)sc23)nc(N(C)C)n1` (racemic) [Compound 138]: the IC90 under setting [1] was in the range of 0.05 to 0.5 µM. The “Multi-Tox Assay Max Activity (%)” value under setting [2] is on record as 98.0%. Turning to `C[C@H]1C[C@@]2(C[C@@H](c3cn(C)nn3)N1)OCCc1cc(Cl)sc12` [Compound 1, (2'S, 6'S, 7S)-2-chloro-2'-methyl-6'-(1-methyltriazol-4-yl)spiro[4,5-dihydrothieno[2,3-c]pyran-7,4'-piperidine]], the IC90 under setting [1] is under 0.05 µM. Besides, the Emax under setting [2] is 99.3%. Regarding `Cc1coc([C@@H]2C[C@]3(C[C@H](C)N2)OCCc2cc(Cl)sc23)n1` (racemic) [Compound 155], under setting [1], the 90% effect concentration (IC90) is over 0.5 µM. The “Multi-Tox Assay Max Activity (%)” value under setting [2] is 95.2%. With `[2H]C1([2H])O[C@@]2(C[C@@H](c3cn(C)nn3)N[C@@H](C)C2)c2sc(Cl)cc2[C@]1([2H])O` [Compound 385, (2S,4S,4'S,6S)-2'-chloro-4',5',5'-trideuterio-2-methyl-6-(1-methyltriazol-4-yl)spiro[piperidine-4,7'-thieno[2,3-c]pyran]-4'-ol], the IC90 under setting [3] is under 0.05 µM. For the same molecule, the Emax under setting [4] came to 100%. On to `CC(C)C(=O)NCCn1cc([C@@H]2C[C@]3(C[C@H](C)N2)OCC(F)(F)c2cc(Cl)sc23)nn1` [Compound 345], for which, under setting [1], the IC90 is 0.05 to 0.5 µM. Take `C[C@H]1C[C@@]2(C[C@@H](c3cn(CCC(C)(C)O)nn3)N1)OC[C@@H](O)c1cc(Cl)sc12` [Compound 252]: under setting [1], the concentration for an effect of 90% (IC90) lay within 0.05 to 0.5 µM. The “Multi-Tox Assay Max Activity (%)” value under setting [2] is reported as 100.0%.

As to `C[C@H]1C[C@@]2(C[C@@H](c3cn(Cc4cccc5c4OCCO5)nn3)N1)OC[C@@H](O)c1cc(Cl)sc12` [Compound 268], under setting [1], the 90% effect concentration (IC90) is 0.05 to 0.5 µM. As to `CC1CC2(CC(c3ccc4c(c3)OCC(=O)N4)N1)OCCc1cc(Cl)sc12` (stereo not drawn) [Compound 39], the IC90 under setting [1] is under 0.05 µM. The Emax under setting [2] came to 99.7%. In the case of `COc1nn(C)cc1[C@@H]1C[C@]2(C[C@H](C)N1)OCCc1cc(Cl)sc12` (racemic) [Compound 154], the IC90 under setting [1] was over 0.5 µM. Moreover, the “Multi-Tox Assay Max Activity (%)” value under setting [2] was 94.0%.

Turning to `C[C@H]1C[C@@]2(C[C@@H](c3cn(CC(C)(C)O)nn3)N1)OC[C@@H](O)c1cc(Cl)sc12` [Compound 247], the IC90 under setting [1] is over 0.5 µM. In addition, the “Multi-Tox Assay Max Activity (%)” value under setting [2] is 91.0%. The like results for `C[C@H]1C[C@@]2(C[C@@H](c3cn(CC4(O)CC4)nn3)N1)OC[C@@H](O)c1cc(Cl)sc12` [Compound 233] were, in that order, 0.05 to 0.5 µM and 100.0%. Regarding `COc1ccc(C2CC3(CC(C)N2)OCCc2cc(Cl)sc23)nc1` (stereo not drawn) [Compound 34], the 90% effect concentration (IC90) under setting [1] is under 0.05 µM. For the molecule `CCc1c[nH]c([C@@H]2C[C@]3(C[C@H](C)N2)OCCc2cc(Cl)sc23)n1` (racemic) [Compound 153], the IC90 under setting [1] was over 0.5 µM. In addition, the “Multi-Tox Assay Max Activity (%)” value under setting [2] turned out to be 96.0%. The like results for `Cc1ncc(Cn2cc([C@@H]3C[C@]4(C[C@H](C)N3)OC[C@@H](O)c3cc(Cl)sc34)nn2)cn1` [Compound 277] were, in that order, 0.05 to 0.5 µM and 100.0%. On to `C[C@H]1C[C@@]2(C[C@@H](c3cnc4n3CCOC4)N1)OCCc1cc(Cl)sc12` (racemic) [Compound 149], for which the concentration for an effect of 90% (IC90) under setting [1] was over 0.5 µM. Also, under setting [2], the “Multi-Tox Assay Max Activity (%)” value is 95.7%. The like results for `C[C@H]1C[C@@]2(C[C@@H](c3cn(Cc4n[nH]c5ccccc45)nn3)N1)OC[C@@H](O)c1cc(Cl)sc12` [Compound 232] were, in that order, 0.05 to 0.5 µM and 100.0%.

Consider `C[C@H]1C[C@@]2(C[C@@H](c3cn(Cc4cccnn4)nn3)N1)OCC(F)(F)c1cc(Cl)sc12` [Compound 321], for which the IC90 under setting [1] was in the range of 0.05 to 0.5 µM. Consider `C[C@H]1C[C@@]2(C[C@@H](c3ccc(C(F)(F)F)nc3)N1)OCCc1cc(Cl)sc12` (racemic) [Compound 123], for which the IC90 under setting [1] was 0.05 to 0.5 µM. Further, the “Multi-Tox Assay Max Activity (%)” value under setting [2] stood at 100.0%. For `C[C@H]1C[C@@]2(C[C@@H](c3cn(Cc4ncc(F)cc4F)nn3)N1)OC[C@@H](O)c1cc(Cl)sc12` [Compound 298] the same measures were over 0.5 µM and 95.0%.

As for `C[C@H]1C[C@@]2(C[C@@H](c3cnccc3O)N1)OCCc1cc(Cl)sc12` (racemic) [Compound 160], the IC90 under setting [1] is over 0.5 µM. Under setting [2], the “Multi-Tox Assay Max Activity (%)” value is 94.3%. For `C[C@H]1C[C@@]2(C[C@@H](c3cn(Cc4cccnn4)nn3)N1)OC[C@@H](O)c1cc(Cl)sc12` [Compound 280], under setting [1], the concentration for an effect of 90% (IC90) fell in the range of 0.05 to 0.5 µM. As to `CC(C)Cc1cc2c(s1)C1(C[C@@H](C)N[C@@H](C)C1)OCC2` (single isomer, unassigned) [Compound 201], the IC90 under setting [1] is over 0.5 µM. Also, the Emax under setting [2] was determined as 95%. On to `Cc1cc(C2CC3(CC(C)N2)OCCc2cc(Cl)sc23)ncn1` (stereo not drawn) [Compound 43], for which the IC90 under setting [1] is under 0.05 µM. In addition, the “Multi-Tox Assay Max Activity (%)” value under setting [2] amounted to 100.0%. For `CCc1nc([C@@H]2C[C@]3(C[C@H](C)N2)OCCc2cc(Cl)sc23)c[nH]1` (racemic) [Compound 128] the same measures were 0.05 to 0.5 µM and 99.3%. Usually IC50 stands for the midpoint of a concentration-inhibition curve. A low value points to greater potency in that assay. Take `C[C@H]1C[C@@]2(C[C@@H](c3cn(CC4CCC(=O)NC4)nn3)N1)OCC(F)(F)c1cc(Cl)sc12` (stereo partly drawn) [Compound 368]: the 90% effect concentration (IC90) under setting [3] was over 0.5 µM. Besides, under setting [4], the “Multi-Tox Assay Max Activity (%)” value was found to be 96.0%. This molecule came in with a half-maximal inhibitory concentration (IC50) (Multi-Tox Assay, IP50 = IC50 for cell proliferation, APOL1 variant not stated in Table 46) of 0.05 to 0.5 µM.

As for `C[C@H]1CC2(C[C@@H](c3cn(C)nn3)N1)OCCc1sc(Cl)cc12` (single isomer, unassigned) [Compound 173], the 90% effect concentration (IC90) under setting [1] was under 0.05 µM. Under setting [2], the Emax is 99.5%.

Regarding `Cc1cc2c(s1)C1(CC(C)NC(c3cn(C)nn3)C1)OCC2` (single isomer, unassigned) [Compound 3], the concentration for an effect of 90% (IC90) under setting [1] was under 0.05 µM. For the same molecule, under setting [2], the Emax turned out to be 99.7%. In the case of `C[C@H]1C[C@@]2(C[C@@H](c3cn(C[C@@H](O)CO)nn3)N1)OC[C@@H](O)c1cc(Cl)sc12` [Compound 246], the IC90 under setting [1] fell in the range of 0.05 to 0.5 µM. In addition, under setting [2], the “Multi-Tox Assay Max Activity (%)” value came out at 97.0%. The like results for `Cc1nc([C@@H]2C[C@]3(C[C@H](C)N2)OCCc2cc(Cl)sc23)cn1C` (racemic) [Compound 159] were, in that order, over 0.5 µM and 92.2%. For `C[C@H]1C[C@@]2(C[C@@H](c3cn(Cc4ccccn4)nn3)N1)OC[C@@H](O)c1cc(Cl)sc12` [Compound 292], the IC90 under setting [1] was 0.05 to 0.5 µM.
